This note sets out measurements from ChEMBL document CHEMBL6153172, “MALT1 Inhibitors and Degraders: Strategies for NF-κB-Driven Malignancies” (J Med Chem, 2025).

In assay [1] the test system is OCI-Ly3. The assay can be described thus: Growth inhibition of human OCI-Ly3 cells.
The target in assay [2] is T1, Mucosa-associated lymphoid tissue lymphoma translocation protein 1 (Homo sapiens, UniProt Q9UDY8).
T1 sequence (Q9UDY8 whole entry): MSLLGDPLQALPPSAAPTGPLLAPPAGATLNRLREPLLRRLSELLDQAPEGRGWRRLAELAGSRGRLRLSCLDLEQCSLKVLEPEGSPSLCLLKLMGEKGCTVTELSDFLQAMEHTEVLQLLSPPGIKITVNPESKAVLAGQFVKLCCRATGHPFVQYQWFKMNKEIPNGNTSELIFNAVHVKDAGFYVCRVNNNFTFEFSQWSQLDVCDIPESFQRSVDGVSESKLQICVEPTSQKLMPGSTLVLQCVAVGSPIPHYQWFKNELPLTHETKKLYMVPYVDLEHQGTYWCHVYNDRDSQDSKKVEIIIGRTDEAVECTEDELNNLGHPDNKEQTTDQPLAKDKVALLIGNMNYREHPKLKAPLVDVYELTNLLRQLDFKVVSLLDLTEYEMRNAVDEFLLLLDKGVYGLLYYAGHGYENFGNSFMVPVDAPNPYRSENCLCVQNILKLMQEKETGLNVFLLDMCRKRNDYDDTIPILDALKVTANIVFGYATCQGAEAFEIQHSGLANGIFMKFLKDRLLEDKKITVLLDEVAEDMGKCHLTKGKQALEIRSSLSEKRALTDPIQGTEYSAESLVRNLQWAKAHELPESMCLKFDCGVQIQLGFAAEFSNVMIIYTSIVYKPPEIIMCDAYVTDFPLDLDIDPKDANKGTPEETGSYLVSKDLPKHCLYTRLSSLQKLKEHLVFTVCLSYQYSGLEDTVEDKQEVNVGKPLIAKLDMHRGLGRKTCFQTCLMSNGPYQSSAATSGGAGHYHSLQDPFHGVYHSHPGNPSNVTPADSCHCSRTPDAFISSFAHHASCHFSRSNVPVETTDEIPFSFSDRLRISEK
Description: Inhibition of MALT1 (unknown origin)

The target of assay [3] is T1, Mucosa-associated lymphoid tissue lymphoma translocation protein 1. The assay can be described thus: Inhibition MALT1 (unknown origin) using Ac-LRSR-AMC as substrate by fluorescence based analysis.
Assay [4] has the same target. Put plainly: biochemical.
Description: Inhibition of C-terminal human full length wild type MALT1 (329 to 824 residues) extracted from baculovirus infected Sf21 cells using Ac-Leu-Arg-Ser-Arg-Rh110-dPro incubated for 60 mins by fluorescence based analysis
Assay [5] shares this target. Put plainly: biochemical. The source holds these as a separate data set.
Description: Inhibition of human full length His-tagged MALT1 (1 to 824 residues) infected in baculovirus infected Insect cells using Ac-LRSR-AMC as substrate incubated for 1 hr by HTRF assay
Assay [6] has the same target. The assay can be described thus: biochemical. This is another data set of the same source.
Description: Inhibition of N-terminal recombinant human MALT1 (329 to 824 residues) extracted from baculovirus infected Sf21 cells using c-LRSR~Rhodamine110-DP as substrate by fluorescence based assay
For assay [7] the target is unchanged. Put plainly: Inhibition of N-terminal human recombinant MALT1 expressed in Jurkat cells assessed as suppression of IL-2 secretion.
The target is the same in assay [8]. The source holds these as a separate data set.
Description: Binding affinity to full length C-terminal His-tagged wild-type MALT1 catalytic domain (329 to 566 residues) (unknown origin) extracted from Escherichia coli BL21 (DE3) assessed as inhibition constant
Assay [9] concerns OCI-Ly3. Put plainly: Antiproliferative activity against human OCI-Ly3 cells. The class given is functional, cell-based.
Assay [10] has as its target T1, Mucosa-associated lymphoid tissue lymphoma translocation protein 1. The assay can be described thus: Inhibition of GST-tagged human recombinant MALT1 extracted from Escherichia coli using Ac-LRSR-AMC as substrate by fluorescence based analysis.

As usually defined, the GI50 is the concentration giving 50% growth inhibition. For orientation: IC50 means the concentration at which inhibition is half-maximal. Usually Ki stands for the equilibrium dissociation constant of an inhibitor or competing ligand from its target. Read a high Ki as lower affinity.

Each structure is given as a SMILES string. Where a SMILES comes first, the peptide text is derived from it. The star is where a group is joined. Cbz = O=C(OCc1ccccc1)*; CH2F = FC* Some results are limits rather than exact numbers.

Turning to `CC(C)[C@H](NC(=O)OCc1ccccc1)C(=O)N[C@@H](CCCNC(=N)N)C(=O)N1CCC[C@H]1C(=O)N[C@@H](CCCNC(=N)N)C(=O)CF`, in assay [1], the GI50 amounted to 2500 nM.

The compound `CC(C)[C@H](NC(=O)c1ccc(Br)cc1)C(=O)N1CCC[C@H]1C(=O)N[C@@H](CCCNC(=N)N)C(=O)CF` showed a GI50 in assay [1] of 87 nM. Consider `COC(C)c1c(NC(=O)Nc2cnc(-n3nccn3)c(C(F)(F)F)c2)cnc2sc(C)nc12` (stereo not drawn), for which, in assay [2], the 50% inhibitory concentration (IC50) was < 50 nM.

On to `CO[C@@H](c1c(NC(=O)Nc2cnc(-n3nccn3)c(C(F)(F)F)c2)cnc(C)c1C#N)C1CC1`, for which half-maximal inhibition in assay [2] (IC50) required 20 nM. Consider `CO[C@@H](C)c1c(NC(=O)Nc2cncc(C(F)(F)F)c2)cnc2cc(Cl)nn12`, for which 4 nM corresponded to half-maximal inhibition in [3] (IC50). `CO[C@H](C)c1c(NC(=O)Nc2cnc(C(=O)N3CCCC3)c(Cl)c2)cnc2cc(Cl)nn12` had an IC50 in [4] of 14 nM.

`CO[C@@H](C)c1c(NC(=O)Nc2cnc3c(c2)COc2ccnn2-3)cnc2cc(Cl)nn12` gave an IC50 in assay [5] of 34 nM. `C[C@]1(C(F)(F)F)CN(C(=O)Nc2cnc(-n3nccn3)c(Cl)c2)c2cnc3cc(Cl)nn3c21`: the 50% inhibitory concentration (IC50) in [5] is < 10 nM.

Take `CC1(C(F)(F)F)CN(C(=O)Nc2ccc3nonc3c2)c2cnc3cc(Cl)nn3c21` (stereo not drawn): the IC50 in assay [5] amounted to 34 nM. `O=C(Nc1cncc(C(F)(F)F)c1)Nc1cnn2cc(Cl)nc2c1C1CC1`: in [2], the IC50 was < 100 nM. Consider `CCc1ccc2cnn(C)c2c1NS(=O)(=O)c1ccc(N2C[C@](O)(C(F)(F)F)CC2=O)nc1`, for which the values for the IC50 in [6] and in assay [7] were 16 nM and 53 nM, respectively.

In [5], `O=C1NC2C=CC(n3ncc(C(=O)Nc4cnc(-n5nccn5)c(Cl)c4)c3C(F)(F)F)=C3C=CC=C1C32` (stereo not drawn) yielded an IC50 of 15 nM. In the case of `CC(C)C[C@H](NC(=O)OCc1ccccc1)C(=O)N[C@H](C(=O)N1CCC[C@H]1C(=O)N[C@@H](CCCNC(=N)N)C(=O)CF)C(C)C` (Cbz-LVPR-CH2F), in assay [1], it took 768 nM to inhibit growth by half (GI50). The compound `CC(C)[C@H](NC(=O)OCc1ccccc1)C(=O)N1CCC[C@H]1C(=O)N[C@@H](CCCNC(=N)N)C(=O)CF` (Cbz-Val-Pro-Arg-CH2F) returned a 50% growth inhibitory concentration (GI50) in assay [1] of 5620 nM. Also, in assay [8], the affinity corresponds to a Ki of 30 nM. In turn, `CC1(C)CCC2=C(O1)c1ccccc1C(=O)C2=O` [LAPACHONE] gave an IC50 in [9] of 4000 nM. In the case of `CN(C)CCCN1c2ccccc2Sc2ccccc21` [PROMAZINE], the IC50 in assay [10] came out at 3790 nM.
